Laboratory results: patent US6737383B1, “Herbicidal oxadiazolidines” (priority 1999, dated 2004)

Legend:
[1] = tested on: bedstraw; test: Test B pre/postemergence bedstraw; format: in vivo, Galium aparine
In short: (§1)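 Response is a visual 0-to-10 score relative to untreated plants, where 0 means no effect and 10 means complete control, taken twelve to sixteen days after application. Treatments went onto soil at planting and onto foliage of 1- to 4-leaf plants, using a surfactant-containing non-phytotoxic solvent.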

[2] = tested on: blackgrass; test: Test B pre/postemergence blackgrass; format: in vivo, Alopecurus myosuroides
In short: as §1

[3] = tested on: surinam grass; test: Test B pre/postemergence surinam grass; format: in vivo, Brachiaria decumbens
In short: as §1

[4] = tested on: cocklebur; test: Test B pre/postemergence cocklebur; format: in vivo, Xanthium strumarium
In short: as §1

[5] = tested on: corn; test: Test B pre/postemergence corn; format: in vivo, Zea mays
In short: as §1

[6] = tested on: morningglory; test: Test B pre/postemergence morningglory; format: in vivo, Ipomoea hederacea
In short: as §1

[7] = tested on: pigweed; test: Test B pre/postemergence pigweed; format: in vivo, Amaranthus retroflexus
In short: as §1

[8] = tested on: rape; test: Test B pre/postemergence rape; format: in vivo, Brassica napus
In short: as §1

[9] = tested on: velvetleaf; test: Test B pre/postemergence velvetleaf; format: in vivo, Abutilon theophrasti
In short: as §1

[10] = tested on: wheat; test: Test B pre/postemergence wheat; format: in vivo, Triticum aestivum
In short: as §1

[11] = tested on: wild oat; test: Test B pre/postemergence wild oat; format: in vivo, Avena fatua
In short: as §1

[12] = tested on: purple nutsedge; test: Test B pre/postemergence purple nutsedge; format: in vivo, Cyperus rotundus; conditions: Postemergence
In short: as §1

[13] = tested on: rice; test: Test B flood test rice; format: in vivo, Oryza sativa
In short: (§2)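 Plants were grown to the 2-leaf stage before treatment with test chemical, then held in a greenhouse for twelve to sixteen days. Injury was visually rated against untreated controls on a 0–10 scale, where 0 is no effect and 10 is complete control.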

[14] = tested on: smallflower flatsedge; test: Test B flood test smallflower flatsedge; format: in vivo, Cyperus difformis
In short: as §2

[15] = tested on: duck salad; test: Test B flood test duck salad; format: in vivo, Heteranthera limosa
In short: as §2

[16] = tested on: bamyardgrass; test: Test B flood test barnyardgrass; format: in vivo, Echinochloa crus-galli
In short: as §2

[17] = Preemergence, Rate 62 g/ha, scale of 0 to 10 where 0 is no effect and 10 is complete control
[18] = Preemergence, Rate 250 g/ha, scale of 0 to 10 where 0 is no effect and 10 is complete control
[19] = Preemergence, Rate 500 g/ha, scale of 0 to 10 where 0 is no effect and 10 is complete control
[20] = Rate 62 g/ha, Postemergence, scale of 0 to 10 where 0 is no effect and 10 is complete control
[21] = Rate 125 g/ha, Postemergence, scale 0 to 10
[22] = Rate 125 g/ha, Preemergence, scale of 0 to 10 where 0 is no effect and 10 is complete control
[23] = Rate 500 g/ha, Postemergence, scale 0 to 10, 0 no effect, 10 complete control
[24] = Rate 62 g/ha, headed Pre-emergence (flood test species), scale 0 to 10 (0 no effect, 10 complete control)
[25] = Rate 125 g/ha, Pre-emergence, flood test species, scale 0 to 10 where 0 is no effect and 10 is complete control
[26] = Rate 250 g/ha, Pre-emergence, flood-test species, scale 0 to 10, 0 is no effect, 10 is complete control
[27] = Rate 500 g/ha, Pre-emergence, flood test species, scale 0 to 10 (0 no effect, 10 complete control)

[2H]C([2H])([2H])n1c(=O)on(C(=O)N(c2ccc(F)cc2)C(C)C)c1=O [Compound 245]
Bedstraw plant response rating [1, 17]: 0
Bedstraw plant response rating [1, 18]: 9
Plant response rating, Bedstraw [1, 19]: 10
Bedstraw plant response rating [1, 20]: 3
Bedstraw plant response rating [1, 21]: 9
Bedstraw plant response rating [1, 22]: 2
Plant response rating (0 to 10; 0 is no effect, 10 is complete control), Bedstraw ([1]; Rate 250 g/ha, Postemergence): 9
Bedstraw plant response rating [1, 23]: 9
Blackgrass plant response rating [2, 17]: 10
Blackgrass plant response rating [2, 18]: 10
Plant response rating, Blackgrass [2, 19]: 10
Blackgrass plant response rating [2, 20]: 4
Blackgrass plant response rating [2, 21]: 7
Blackgrass plant response rating [2, 22]: 10
Plant response rating (0 to 10; 0 is no effect, 10 is complete control), Blackgrass ([2]; Rate 250 g/ha, Postemergence): 7
Blackgrass plant response rating [2, 23]: 8
B. signalgrass plant response rating [3, 17]: 3
B. signalgrass plant response rating [3, 18]: 8
Plant response rating, B. signalgrass [3, 19]: 10
B. signalgrass plant response rating [3, 20]: 1
B. signalgrass plant response rating ([3]; Rate 125 g/ha, Postemergence, scale 0 (no effect) to 10 (complete control)): 4
B. signalgrass plant response rating [3, 22]: 7
Plant response rating (0 to 10; 0 is no effect, 10 is complete control), B. signalgrass ([3]; Rate 250 g/ha, Postemergence): 6
B. signalgrass plant response rating [3, 23]: 8
Cocklebur plant response rating [4, 17]: 0
Cocklebur plant response rating [4, 18]: 2
Plant response rating, Cocklebur [4, 19]: 6
Cocklebur plant response rating [4, 20]: 0
Cocklebur plant response rating [4, 21]: 0
Cocklebur plant response rating [4, 22]: 2
Plant response rating (0 to 10; 0 is no effect, 10 is complete control), Cocklebur ([4]; Rate 250 g/ha, Postemergence): 0
Cocklebur plant response rating [4, 23]: 1
Corn plant response rating [5, 17]: 3
Corn plant response rating [5, 18]: 7
Plant response rating, Corn [5, 19]: 8
Corn plant response rating [5, 20]: 0
Corn plant response rating [5, 21]: 4
Corn plant response rating [5, 22]: 5
Plant response rating (0 to 10; 0 is no effect, 10 is complete control), Corn ([5]; Rate 250 g/ha, Postemergence): 5
Corn plant response rating [5, 23]: 7
Morningglory plant response rating [6, 17]: 0
Morningglory plant response rating [6, 18]: 6
Plant response rating, Morningglory [6, 19]: 6
Morningglory plant response rating [6, 20]: 5
Morningglory plant response rating [6, 22]: 1
Plant response rating (0 to 10; 0 is no effect, 10 is complete control), Morningglory ([6]; Rate 250 g/ha, Postemergence): 9
Morningglory plant response rating [6, 23]: 9
Redroot pigweed plant response rating [7, 17]: 8
Redroot pigweed plant response rating [7, 18]: 10
Plant response rating, Redroot pigweed [7, 19]: 10
Redroot pigweed plant response rating [7, 20]: 3
Redroot pigweed plant response rating [7, 22]: 10
Plant response rating (0 to 10; 0 is no effect, 10 is complete control), Redroot pigweed ([7]; Rate 250 g/ha, Postemergence): 9
Redroot pigweed plant response rating [7, 23]: 9
Rape plant response rating [8, 17]: 3
Rape plant response rating [8, 18]: 10
Plant response rating, Rape [8, 19]: 10
Rape plant response rating [8, 20]: 0
Rape plant response rating [8, 22]: 4
Plant response rating (0 to 10; 0 is no effect, 10 is complete control), Rape ([8]; Rate 250 g/ha, Postemergence): 2
Rape plant response rating [8, 23]: 5
Velvetleaf plant response rating [9, 17]: 7
Velvetleaf plant response rating [9, 18]: 10
Plant response rating, Velvetleaf [9, 19]: 10
Velvetleaf plant response rating [9, 20]: 3
Velvetleaf plant response rating [9, 22]: 7
Velvetleaf plant response rating [9, 23]: 7
Wheat plant response rating [10, 17]: 6
Wheat plant response rating [10, 18]: 7
Plant response rating, Wheat [10, 19]: 9
Wheat plant response rating [10, 20]: 4
Wheat plant response rating [10, 22]: 6
Wheat plant response rating [10, 23]: 8
Wild oats plant response rating [11, 17]: 3
Wild oats plant response rating [11, 18]: 10
Plant response rating, Wild oats [11, 19]: 10
Wild oats plant response rating [11, 20]: 0
Wild oats plant response rating [11, 22]: 5
Wild oats plant response rating [11, 23]: 8
Nutsedge plant response rating ([12]; Rate 62 g/ha, scale of 0 to 10 where 0 is no effect and 10 is complete control): 0
Plant response rating (0 to 10; 0 is no effect, 10 is complete control), Nutsedge ([12]; Rate 250 g/ha): 0
Nutsedge plant response rating ([12]; Rate 500 g/ha, scale 0 to 10, 0 no effect, 10 complete control): 0
Rice plant response rating [13, 24]: 0
Rice plant response rating [13, 25]: 0
Rice plant response rating [13, 26]: 0
Rice plant response rating [13, 27]: 0
S. Flatsedge plant response rating [14, 24]: 0
S. Flatsedge plant response rating [14, 25]: 0
S. Flatsedge plant response rating [14, 26]: 0
S. Flatsedge plant response rating [14, 27]: 0
Ducksalad plant response rating [15, 24]: 0
Ducksalad plant response rating [15, 25]: 0
Ducksalad plant response rating [15, 26]: 0
Ducksalad plant response rating [15, 27]: 0
Barnyardgrass plant response rating [16, 24]: 0
Barnyardgrass plant response rating [16, 25]: 0
Barnyardgrass plant response rating [16, 26]: 0
Barnyardgrass plant response rating [16, 27]: 0
